Results: patent publication US20110117168A1, “METHODS AND COMPOSITIONS FOR SOFT TISSUE REPAIR” (AFFINERGY, INC., priority 2009, published 2011)
Ends that are not written are not given here.

Test system: MSCs
Assay: Capture of MSCs from bone marrow aspirate, colony forming units
Format: cell-based, human
Settings: biotinylated peptide, streptavidin-coated MILTENYI beads; compared to CD105 and MSCA-1 antibody beads
Procedure: This experiment was performed to examine the ability of cell binding peptide SEQ ID NO: 4 to capture MSCs directly from bone marrow aspirate in comparison to two separate antibodies against the CD105 I antigen (CD105) and the MSCA-1 stem cell antigen (MSCA-1). This experiment employed biotinylated peptides with streptavidin-coated […] magnetic beads. The peptides were biotinylated as described herein at Example 2. […] For the antibody capture experiment, magnetic beads having covalently attached CD105 or MSCA-1 antibody were employed ([…]). Prior to incubation with the peptides and antibodies, bone marrow aspirate (BMA) was mixed with 5 volumes of 10 mM ammonium chloride for 1-2 min at room temperature to lyse red blood cells. The lysate was centrifuged for 5 min at 300×g and the supernatant discarded. The cell pellet was washed with wash buffer (PBS+0.5% bovine serum albumin+0.5 mM EDTA) and cells were resuspended in […] peptide at a concentration of 10^8 per mL. For peptide binding studies, the cell suspension was incubated with the biotinylated peptides for 30 min at 4° C. to allow for binding. After incubation, cells were spun down at 300×g for 5 min, and peptide solution was aspirated. Cells were then rinsed twice with wash buffer, with centrifugation between washes. […] Colony forming units (CFUs) were counted after 14 days in culture. […]

SSFWDVCQGDGTCYGGGSR (SSFWDVCQGDGTCYGGGSRGSSG-{K(biotin)}; cysteine pairing not given here) [SEQ ID NO: 4, tested biotinylated with GSSGK(biotin) or other spacer at the C-terminus]
MSC capture from bone marrow aspirate (CFUs after 14 days in culture): as efficient as capture by either of the CD105 or MSCA-1 antibodies
